Consider 3 molecules from patent US12565661B2, “Compositions and methods for weed control” (Syngenta Crop Protection AG, priority 2019, dated 2026).

Where “and” joins values, the source holds several entries; their conditions need not be identical. Identical values can stand only once.

Holding throughout (type): in vivo
Assay [1] deals with transgenic tobacco overexpressing Arabidopsis SDPS F240L gene and wild-type tobacco. In words: Herbicide damage of transgenic tobacco sprayed with 75 g/ha Aclonifen or 25 g/ha herbicide Z. The conditions noted are these: 7 days post treatment; for average herbicide damage score: 75 g/ha. On the procedure:
A further set of transgenic tobacco overexpressing the Arabidopsis SDPS F240L gene (SEQ ID NO.3) were created as described above. These plants were sprayed with 75 g/ha Aclonifen or 25 g/ha herbicide Z. The plants were assessed for herbicide damage at 7 days post treatment and compared to wild-type tobacco plants.
Numerous transgenic tobacco events expressing the Arabidopsis SDPS2 F240L gene (SEQ ID NO.3) show no damage from the herbicide treatment in contrast to the damage seen on the control plants. The average herbicide damage scores for the transgenic tobacco population versus the control wild-type plants are shown in table 6.

Assay [2] concerns transgenic tobacco expressing SDPS genes and wild-type Samsun tobacco. In words: Herbicide tolerance of transgenic tobacco sprayed with 1000 g/ha Herbicide Compound 1, visual damage score. The conditions noted are these: for Average Damage (%): 1000 g/ha spray, average across population. The source says:
Populations of transgenic tobacco comprising 20-30 transgenic events per plant transformation constructs were generated as described in example 4. These lines were clonally propagated and 1 clone per event was sprayed with 1000 g/ha of Herbicide Compound 1. Herbicidal damage was visually assessed across the population and a herbicide damage score given at 7 and 14 days. […] indicates no visible damage or stunting whereas a score of 100 indicates a complete death of the plant.
The results in FIG. 3 show the damage scores for 4 populations of plants expressing either Arabidopsis SDPS2 gene (SEQ ID NO.2), the Arabidopsis SDPS2 F240L mutated gene (SEQ ID NO.3). the Chlorella fusca SDPS gene (SEQ ID NO. 10) or the Chlorella fusca SDPS F227L mutated gene (SEQ ID NO.11). A control population of wild-type Samsun tobacco was also assessed for herbicide damage. […] The Arabidopsis gene (SEQ ID NO.2) performs better than the Chlorella wild-type gene in terms of herbicide tolerance and this tolerance is again improved by the addition of the F240L mutation (SEQ ID NO.3).

Assay [3] has as its system Nicotiana tabacum Samsun wild type and transgenic lines (plantlets). The experiment in a line: Tolerance of transgenic tobacco T1 lines in liquid culture, bleaching damage score. The conditions noted are these: after 7 days. On the procedure:
Nicotiana tabacum Samsun wild type and transgenic lines were sterilized by placing in 30 ml Universals containing approximately 15 ml freshly made 2% Virkon and rotated on a roller for 15 mins. The Virkon was pipetted off using an extended fine tip mini pastette and the seed washed 4 times with 1% PPM (Plant Preservative Mixture, P820, 250 ml. Apollo Scientific Ltd.)
Seed was germinated on 90 mm Petri dishes containing 1/3 MS+0.8% agarose (SPI, Duchefa #DU 0463). pH5.7 (for WT) and 1/3 MS+0.8% agarose+100 ug/ml kanamycin (for the transgenic). Approximately 100 seed of each was spread on to each Petri dish. NB the transgenic seed is not homozygous therefore was plated on Kan to select. (MS=Murashige & Skoog MS Medium, #M0221, Melford Labs).
Plates were placed in a clear plastic “incubating box” (lids under plate) and incubated in a controlled environment room with the following conditions: • Temperature: Day 25° C./Night 25° C. • Light settings: Photo period 16 hours, Light level ˜50 μmol/m^2/s Dose Response Test:
7 day old tobacco plantlets (3 plantlets per well) were transferred aseptically to 24 well plates (cell-culture cluster flat bottom with lid) (Corning Costar #3524) containing 2 ml % MS+30 mM sucrose (Fisher #10638403), pH5.7 per well. Herbicide 2 was two-fold serially diluted in DMSO starting at 10 ppm and added to the media. DMSO only was added to the zero compound control wells. NB.
Plates were placed in clear plastic “Incubating boxes” (lid under plate) and incubated for 2 weeks in a controlled environment room with the following conditions: • Temperature: Day 24° C./Night 18° C. • Light settings: Photo period 16 hours, Light level 600 μmol/m^2/s. Assessment:
Plantlets were assessed visually for bleaching symptomology after 7 days and a damage score given for each well.

On to `Nc1c([N+](=O)[O-])ccc(Oc2ccccc2)c1Cl` [Aclonifen], for which the “average herbicide damage score” value in assay [1] (Wild type tobacco) amounted to 40; in assay [1] (pBin AraSDPS2 F240L transgenic tobacco), 16.17. For the same molecule, the herbicide damage score in assay [1] (wild type tobacco, individual control plants, Aclonifen 75 g/ha spray) was 35 (4×) and 30 (2×) and 60 (2×).
`CCOC(=O)C(CC)N(c1c(C)cccc1C)S(=O)(=O)CCl` (stereo not shown) [Herbicide Compound Ex. 1]: the “Average Damage (%)” value in assay [2] (WT Control tobacco) is given as 23.125%; in assay [2] (tobacco with construct pBin TMV AraSDPS2) it was 13.25%; in assay [2] (tobacco with construct pBin TMV AraSDPS2_F240L), 5%; in assay [2] (tobacco with construct pBin TMV CfSDPS), 25%; in assay [2] (tobacco with construct pBin TMV CfSDPS_F227L) it was 10.05%. Also, the “tolerance to herbicide (in words)” value is reported as “does display increased tolerance” in assay [2] (tobacco expressing Chlorella fusca SDPS F227L (SEQ ID NO.11)) and “does not increase tolerance” in assay [2] (tobacco overexpressing Chlorella fusca SDPS (SEQ ID NO. 10)).
In the case of `CCOC(=O)C(C)N(c1c(C)cccc1C)S(=O)(=O)CC` (stereo not shown) [Herbicide Compound Ex. 2], the “bleaching damage score (two replicate plates a/b)” value (“bleaching damage score” below) is 0/0 in assay [3] (0.75 ppm, WT (Samsun)); 0/0 in assay [3] (0.75 ppm, tobacco line ARA SDPS1); 0/0 in assay [3] (0.75 ppm, tobacco line ARA SDPS F240V 1); 0/0 in assay [3] (1.25 ppm, WT (Samsun)); 0/0 in assay [3] (1.25 ppm, tobacco line ARA SDPS1); 0/0 in assay [3] (1.25 ppm, tobacco line ARA SDPS F240V 1). Further, the “bleaching damage score” value in assay [3] (2.5 ppm, WT (Samsun), listed as Herbicide 2) is 25/25 and 50/50; in assay [3] (2.5 ppm, tobacco line ARA SDPS1, listed as Herbicide 2), 50/50 and 50/25 and 25/25; in assay [3] (2.5 ppm, tobacco line ARA SDPS F240V 1), 25/25; in assay [3] (5 ppm, WT (Samsun), listed as Herbicide 2), 90/100 and 95/90; in assay [3] (5 ppm, tobacco line ARA SDPS1, listed as Herbicide 2), 100/100 and 90/80 and 80/95; in assay [3] (5 ppm, tobacco line ARA SDPS F240V 1, listed as Herbicide 2) it was 50/50 (2×) and 50/25. The “bleaching damage score” value was 100/100 and 95/100 in assay [3] (10 ppm, WT (Samsun), listed as Herbicide 2); 100/100 in assay [3] (10 ppm, tobacco line ARA SDPS1); 90/100 (2×) and 100/100 in assay [3] (10 ppm, tobacco line ARA SDPS F240V 1, listed as Herbicide 2).
